Test in all cases: In Vitro Inhibition Assay Method
In assay [1] the target is Alpha-ketoglutarate-dependent dioxygenase FTO (Homo sapiens, UniProt Q9C0B1). As for the experimental part:
(§1) Inhibitors were added in concentrations ranging from 0.008-40 μM; all inhibitors were dissolved in DMSO and added to a final concentration of 0.2% DMSO. […] After incubation at room temperature for 2 hours, the plates were left at 4 C. overnight (16 hours) to allow DFHBI-1T to bind to A7-Broccoli RNA. […] Sigmoidal dose-response curves were fitted in GraphPad Prism 6.

The target of the next assay is RNA demethylase ALKBH5 (Homo sapiens, UniProt Q6P6C2). As for the experimental part:
as §1

Assay [2] has as its target T1, YTH domain-containing family protein 2 (Homo sapiens, UniProt Q9Y5A9).
T1 sequence (Q9Y5A9 whole entry): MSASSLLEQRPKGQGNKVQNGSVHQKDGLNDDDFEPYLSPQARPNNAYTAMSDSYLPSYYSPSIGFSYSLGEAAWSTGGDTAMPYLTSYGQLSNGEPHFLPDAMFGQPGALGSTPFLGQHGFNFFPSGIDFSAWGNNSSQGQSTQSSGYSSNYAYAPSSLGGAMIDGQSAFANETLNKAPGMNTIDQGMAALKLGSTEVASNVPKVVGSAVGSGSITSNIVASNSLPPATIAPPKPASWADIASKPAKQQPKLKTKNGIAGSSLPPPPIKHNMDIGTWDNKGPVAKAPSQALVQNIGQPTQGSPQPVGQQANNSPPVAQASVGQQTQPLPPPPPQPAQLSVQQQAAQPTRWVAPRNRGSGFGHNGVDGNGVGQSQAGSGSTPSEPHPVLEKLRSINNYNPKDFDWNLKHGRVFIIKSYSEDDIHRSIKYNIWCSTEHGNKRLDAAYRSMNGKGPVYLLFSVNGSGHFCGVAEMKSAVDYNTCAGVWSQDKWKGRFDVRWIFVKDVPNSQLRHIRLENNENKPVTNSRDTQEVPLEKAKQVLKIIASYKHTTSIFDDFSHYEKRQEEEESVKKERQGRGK
On the procedure: as §1

The target in assay [3] is T2, YTH domain-containing family protein 1 (Homo sapiens, UniProt Q9BYJ9).
T2 sequence (Q9BYJ9 whole entry): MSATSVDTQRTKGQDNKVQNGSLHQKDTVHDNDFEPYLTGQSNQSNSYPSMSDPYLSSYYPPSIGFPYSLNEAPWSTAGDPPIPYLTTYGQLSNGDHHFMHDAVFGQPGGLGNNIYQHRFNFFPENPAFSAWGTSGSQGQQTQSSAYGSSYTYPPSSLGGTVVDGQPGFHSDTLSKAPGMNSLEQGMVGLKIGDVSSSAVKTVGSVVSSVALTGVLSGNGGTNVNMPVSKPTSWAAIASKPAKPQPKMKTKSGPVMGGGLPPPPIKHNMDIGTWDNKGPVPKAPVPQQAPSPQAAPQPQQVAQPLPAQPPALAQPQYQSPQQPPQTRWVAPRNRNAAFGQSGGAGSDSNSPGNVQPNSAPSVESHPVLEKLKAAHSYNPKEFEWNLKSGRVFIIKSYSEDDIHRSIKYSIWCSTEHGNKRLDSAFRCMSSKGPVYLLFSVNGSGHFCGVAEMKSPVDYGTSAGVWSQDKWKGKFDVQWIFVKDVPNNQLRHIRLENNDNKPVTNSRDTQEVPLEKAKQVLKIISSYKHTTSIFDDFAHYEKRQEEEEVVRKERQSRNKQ
As for the experimental part: as §1

Structures are written as SMILES.

Sequence of RNA demethylase ALKBH5 (Q6P6C2 whole entry): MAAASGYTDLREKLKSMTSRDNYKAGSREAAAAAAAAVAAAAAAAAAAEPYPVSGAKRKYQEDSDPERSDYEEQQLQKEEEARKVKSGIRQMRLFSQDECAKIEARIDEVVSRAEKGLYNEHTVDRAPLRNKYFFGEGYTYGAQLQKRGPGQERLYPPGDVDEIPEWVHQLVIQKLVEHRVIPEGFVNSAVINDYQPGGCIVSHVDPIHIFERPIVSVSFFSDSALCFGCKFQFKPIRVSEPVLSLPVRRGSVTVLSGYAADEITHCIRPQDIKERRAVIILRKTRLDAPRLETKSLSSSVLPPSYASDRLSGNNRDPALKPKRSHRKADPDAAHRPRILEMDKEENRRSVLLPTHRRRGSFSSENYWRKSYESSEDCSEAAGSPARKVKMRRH
Sequence of Alpha-ketoglutarate-dependent dioxygenase FTO (Q9C0B1 whole entry): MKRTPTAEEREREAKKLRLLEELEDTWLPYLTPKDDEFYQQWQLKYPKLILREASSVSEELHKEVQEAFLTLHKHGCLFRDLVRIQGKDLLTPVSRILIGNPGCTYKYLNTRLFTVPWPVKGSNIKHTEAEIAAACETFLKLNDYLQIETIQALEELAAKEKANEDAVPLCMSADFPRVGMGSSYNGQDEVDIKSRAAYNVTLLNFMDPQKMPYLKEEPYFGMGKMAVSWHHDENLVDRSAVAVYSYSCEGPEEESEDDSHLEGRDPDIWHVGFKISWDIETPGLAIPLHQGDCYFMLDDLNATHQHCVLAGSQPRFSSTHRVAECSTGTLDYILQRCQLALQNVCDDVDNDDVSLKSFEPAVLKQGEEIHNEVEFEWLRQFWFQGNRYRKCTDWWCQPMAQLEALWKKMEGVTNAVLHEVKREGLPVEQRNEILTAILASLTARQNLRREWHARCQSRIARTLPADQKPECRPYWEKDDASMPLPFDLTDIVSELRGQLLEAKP

As to `O=S(=O)(Nc1ccc(Cl)c(Cl)c1)c1ccc(OC(F)(F)F)cc1` [US20230322715, Compound TR-ALKBH5-33], the IC50 in assay [1] is greater than 40000 nM; against RNA demethylase ALKBH5, 2600 nM.
In the same order, the values of `O=C(C1CC1)N1CCN(S(=O)(=O)c2ccc(OC(F)(F)F)cc2)CC1` [US20230322715, Compound TR-ALKBH5-41] are greater than 40000 nM and 450 nM.
Turning to `CSc1ccccc1Nc1ccc(CNC2CC2)cn1` [US20230322715, Compound TR-YTH-11], the Ki was 5.59 nM in assay [2] and 13.4 nM in assay [3].
For the molecule `COc1cc(Nc2ccc(CNC3CC3)cn2)cc(OC)c1` [US20230322715, Compound TR-YTH-13], the Ki is 0.15 nM in assay [2] and 0.473 nM in assay [3].
For `Fc1ccc(Nc2ccc(CNC3CC3)cn2)c(F)n1` [US20230322715, Compound TR-YTH-14] the same measures were 0.128 nM and 0.399 nM.
Consider `Cc1ccc(Nc2ccc(CN(C)C)cn2)cc1C` [US20230322715, Compound TR-YTH-17], for which the Ki in assay [2] worked out at 0.333 nM; in assay [3], 0.605 nM.

(Values after BindingDB's records for patent US20230322715 (University of California, 2023).)
